What all share (assay): biochemical
What all share (parameters): DiscoveRx KINOMEscan active site-directed competition binding; percent of control kinase bound to immobilised ligand

Experiment [1] has as its target T1, HIPK4 (Homo sapiens, UniProt Q8NE63).
T1 sequence (Q8NE63 1-616): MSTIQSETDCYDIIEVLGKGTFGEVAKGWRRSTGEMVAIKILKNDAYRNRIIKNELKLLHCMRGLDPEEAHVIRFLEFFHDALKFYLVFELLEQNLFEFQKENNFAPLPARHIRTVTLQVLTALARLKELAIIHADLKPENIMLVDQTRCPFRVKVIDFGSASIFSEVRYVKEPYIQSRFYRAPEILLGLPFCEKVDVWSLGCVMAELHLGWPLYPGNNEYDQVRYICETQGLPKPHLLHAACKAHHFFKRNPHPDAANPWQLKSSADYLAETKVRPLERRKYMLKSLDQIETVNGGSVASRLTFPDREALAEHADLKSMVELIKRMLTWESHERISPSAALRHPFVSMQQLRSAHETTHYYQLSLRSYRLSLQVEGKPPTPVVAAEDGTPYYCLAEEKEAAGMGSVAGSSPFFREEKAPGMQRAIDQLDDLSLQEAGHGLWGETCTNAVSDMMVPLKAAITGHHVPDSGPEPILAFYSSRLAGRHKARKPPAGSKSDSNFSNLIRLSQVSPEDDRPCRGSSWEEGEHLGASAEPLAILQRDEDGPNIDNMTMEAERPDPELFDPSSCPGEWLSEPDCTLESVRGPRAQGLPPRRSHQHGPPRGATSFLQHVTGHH

In experiment [2] the target is T2, JAK3(JH1domain-catalytic) (Homo sapiens, UniProt P52333).
T2 construct: JH1domain-catalytic
T2 sequence (P52333 1-1124): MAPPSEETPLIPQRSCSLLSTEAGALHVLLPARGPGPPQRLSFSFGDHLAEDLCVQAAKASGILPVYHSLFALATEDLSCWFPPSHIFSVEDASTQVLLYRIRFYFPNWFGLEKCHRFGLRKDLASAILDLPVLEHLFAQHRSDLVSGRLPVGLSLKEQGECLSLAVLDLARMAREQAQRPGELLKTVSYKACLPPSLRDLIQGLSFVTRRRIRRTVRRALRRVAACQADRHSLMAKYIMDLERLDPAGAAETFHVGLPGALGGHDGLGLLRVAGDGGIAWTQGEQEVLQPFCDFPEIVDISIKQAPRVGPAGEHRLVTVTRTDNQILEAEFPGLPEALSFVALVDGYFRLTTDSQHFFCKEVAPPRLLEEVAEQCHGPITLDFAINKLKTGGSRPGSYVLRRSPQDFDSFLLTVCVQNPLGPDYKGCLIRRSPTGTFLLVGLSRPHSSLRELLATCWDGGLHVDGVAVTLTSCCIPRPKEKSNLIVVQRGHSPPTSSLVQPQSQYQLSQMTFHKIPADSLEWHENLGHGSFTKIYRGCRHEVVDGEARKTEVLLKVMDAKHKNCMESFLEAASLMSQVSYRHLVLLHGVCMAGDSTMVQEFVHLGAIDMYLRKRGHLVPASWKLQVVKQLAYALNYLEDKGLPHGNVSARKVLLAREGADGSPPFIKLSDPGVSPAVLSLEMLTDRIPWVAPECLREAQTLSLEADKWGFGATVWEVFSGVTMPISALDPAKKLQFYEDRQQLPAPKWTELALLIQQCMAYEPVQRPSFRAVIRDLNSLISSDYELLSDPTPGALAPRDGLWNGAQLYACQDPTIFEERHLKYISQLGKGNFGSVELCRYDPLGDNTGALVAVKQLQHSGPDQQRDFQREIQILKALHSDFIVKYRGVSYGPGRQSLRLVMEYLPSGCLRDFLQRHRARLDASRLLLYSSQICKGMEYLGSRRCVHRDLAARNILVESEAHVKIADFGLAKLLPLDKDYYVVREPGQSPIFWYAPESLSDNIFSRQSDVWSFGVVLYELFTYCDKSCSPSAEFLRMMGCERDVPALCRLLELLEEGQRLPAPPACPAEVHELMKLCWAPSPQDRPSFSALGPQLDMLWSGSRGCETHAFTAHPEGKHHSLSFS

In experiment [3] the target is T3, LATS1 (Homo sapiens, UniProt O95835).
T3 sequence (O95835 1-1130): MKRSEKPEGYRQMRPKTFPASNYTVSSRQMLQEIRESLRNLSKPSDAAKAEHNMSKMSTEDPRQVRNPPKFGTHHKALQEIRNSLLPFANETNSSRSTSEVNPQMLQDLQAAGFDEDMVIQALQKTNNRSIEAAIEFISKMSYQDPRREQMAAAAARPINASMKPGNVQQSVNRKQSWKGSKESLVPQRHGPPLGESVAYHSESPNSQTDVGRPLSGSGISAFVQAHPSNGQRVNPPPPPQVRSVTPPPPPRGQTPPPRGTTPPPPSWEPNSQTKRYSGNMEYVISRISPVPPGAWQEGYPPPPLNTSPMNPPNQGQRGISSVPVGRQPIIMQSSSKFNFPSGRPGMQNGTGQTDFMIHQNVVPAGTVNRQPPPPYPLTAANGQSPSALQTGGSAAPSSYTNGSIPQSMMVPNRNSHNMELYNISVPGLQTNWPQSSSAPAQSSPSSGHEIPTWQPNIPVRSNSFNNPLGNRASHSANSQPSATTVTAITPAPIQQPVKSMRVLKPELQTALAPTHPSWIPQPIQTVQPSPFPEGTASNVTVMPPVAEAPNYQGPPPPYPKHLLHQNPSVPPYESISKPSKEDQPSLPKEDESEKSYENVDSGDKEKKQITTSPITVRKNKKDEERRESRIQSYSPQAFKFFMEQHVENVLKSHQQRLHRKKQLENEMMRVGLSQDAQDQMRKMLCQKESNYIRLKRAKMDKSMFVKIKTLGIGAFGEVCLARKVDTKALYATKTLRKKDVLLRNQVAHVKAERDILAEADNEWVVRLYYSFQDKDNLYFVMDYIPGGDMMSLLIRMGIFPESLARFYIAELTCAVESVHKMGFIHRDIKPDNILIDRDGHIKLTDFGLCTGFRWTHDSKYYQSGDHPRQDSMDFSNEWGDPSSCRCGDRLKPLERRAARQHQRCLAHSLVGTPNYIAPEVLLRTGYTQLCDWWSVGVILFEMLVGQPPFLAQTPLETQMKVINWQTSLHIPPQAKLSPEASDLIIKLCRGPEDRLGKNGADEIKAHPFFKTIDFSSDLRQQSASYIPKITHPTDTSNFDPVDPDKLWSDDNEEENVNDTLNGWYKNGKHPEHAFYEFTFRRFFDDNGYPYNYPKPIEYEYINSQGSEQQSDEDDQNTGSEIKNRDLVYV

[4] abbreviates: read-out: Niraparib (MK-4827) / %Ctrl @ 10000nM.
Where [5] appears, read: read-out: Talazoparib (BMN 673) / %Ctrl @ 10000nM.
Setting [6] is: read-out: Rucaparib / %Ctrl @ 10000nM, binding competition, % of control.
The mark [7] stands for this setting: read-out: Olaparib / %Ctrl @ 10000nM.

Like-named read-outs stand apart in the source and are kept apart here.

For the molecule `NC(=O)c1cccc2cn(-c3ccc([C@@H]4CCCNC4)cc3)nc12` [Niraparib], the figures for the percent of control binding at 10 µM in experiment [1] (setting [4]), in experiment [2] (setting [4]) and in experiment [3] (setting [4]) were 80%, 95% and 36%, respectively.

Turning to `Cn1ncnc1[C@H]1c2n[nH]c(=O)c3cc(F)cc(c23)N[C@@H]1c1ccc(F)cc1` [Talazoparib], the percent of control binding at 10 µM in experiment [1] (setting [5]) turned out to be 100%; in experiment [2] (setting [5]), 100%; in experiment [3] (setting [5]), 92%.

On to `CNCc1ccc(-c2[nH]c3cc(F)cc4c3c2CCNC4=O)cc1` [Rucaparib], for which the percent of control binding at 10 µM in experiment [1] (setting [6]) was 51%; in experiment [2] (setting [6]) it was 70%; in experiment [3] (setting [6]), 75%.

In the case of `O=C(c1cc(Cc2n[nH]c(=O)c3ccccc23)ccc1F)N1CCN(C(=O)C2CC2)CC1` [Olaparib], the percent of control binding at 10 µM in experiment [1] (setting [7]) stood at 100%; in experiment [2] (setting [7]) it was 83%; in experiment [3] (setting [7]) it was 78%.

The record behind these values is paper PMC7026418, “The kinase polypharmacology landscape of clinical PARP inhibitors” (Scientific Reports, 2020).
